Reference: BindingDB's records for doi:10.1016/s0960-894x(98)00140-1 (University of Connecticut, 1998)

Molecular target: Pancreatic triacylglycerol lipase (Sus scrofa) (UniProt P00591)
Assay: Compound was tested for inhibition of porcine pancreatic lipase

Sequence of Pancreatic triacylglycerol lipase (Sus scrofa) (P00591 whole entry, looked up): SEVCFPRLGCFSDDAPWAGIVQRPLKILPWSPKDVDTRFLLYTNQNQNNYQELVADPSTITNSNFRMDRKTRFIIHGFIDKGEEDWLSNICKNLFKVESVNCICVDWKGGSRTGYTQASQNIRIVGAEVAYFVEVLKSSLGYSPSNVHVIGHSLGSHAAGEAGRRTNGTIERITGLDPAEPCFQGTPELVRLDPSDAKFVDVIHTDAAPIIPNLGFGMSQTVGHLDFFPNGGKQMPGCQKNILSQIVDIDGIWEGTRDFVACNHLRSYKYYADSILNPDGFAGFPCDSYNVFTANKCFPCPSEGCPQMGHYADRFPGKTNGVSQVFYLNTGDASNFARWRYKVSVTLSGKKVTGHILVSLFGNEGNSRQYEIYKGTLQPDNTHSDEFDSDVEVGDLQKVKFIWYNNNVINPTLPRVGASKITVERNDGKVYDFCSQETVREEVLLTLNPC

C=C1O[C@@H](C[C@H](CCCCCCCCCCC)OC(=O)[C@H](CC(C)C)NC=O)[C@@H]1CCCCCC
IC50: 3.44 µM
